Measured values: patent US20230183237A1, “COMPETITIVE AND NONCOMPETITIVE INHIBITORS OF THE MUSCARINIC ACETYLCHOLINE RECEPTOR M5” (Vanderbilt University, priority 2020, published 2023)
Like-named read-outs stand apart in the source and are kept apart here.

Molecular target: T1, hM5 (Homo sapiens, UniProt P08912)
T1 construct: expressed in transfected cells
T1 sequence (P08912 1-532): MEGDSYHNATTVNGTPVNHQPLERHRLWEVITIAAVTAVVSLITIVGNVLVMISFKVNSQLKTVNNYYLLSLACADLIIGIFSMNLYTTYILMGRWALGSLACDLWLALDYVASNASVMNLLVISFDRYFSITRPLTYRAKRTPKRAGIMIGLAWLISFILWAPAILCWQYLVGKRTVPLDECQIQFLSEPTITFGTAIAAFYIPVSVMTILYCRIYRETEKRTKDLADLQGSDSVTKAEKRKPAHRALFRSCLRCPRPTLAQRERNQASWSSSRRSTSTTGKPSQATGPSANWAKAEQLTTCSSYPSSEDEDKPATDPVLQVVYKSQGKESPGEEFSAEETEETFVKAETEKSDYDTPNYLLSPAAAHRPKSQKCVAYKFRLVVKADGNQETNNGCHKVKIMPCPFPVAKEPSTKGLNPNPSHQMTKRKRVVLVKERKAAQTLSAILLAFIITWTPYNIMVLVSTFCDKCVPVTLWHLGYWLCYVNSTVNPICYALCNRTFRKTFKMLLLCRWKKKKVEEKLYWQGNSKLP
Test: Calcium mobilization concentration-response (IC50 vs EC80 acetylcholine), CHO hM5
Type: cell-based
Summary of the method: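 IC50 values derive from percent maximal acetylcholine response after an EC80 ACh addition, measured as kinetic calcium fluorescence (static ratio, max−min). Test compounds were added 140 s before agonist. Cells: stable hM5-CHO in HEPES-buffered HBSS with 2.5 mM probenecid, pH 7.4; ≥3 independent triplicate determinations.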

[1] = CELL LINE hM5, vs EC80 acetylcholine, read-out: IC50
[2] = CELL LINE hM5, calcium mobilization, EC80 acetylcholine addition, read-out: IC50

Row | Structure (SMILES) | IC50 [1] [nM] | IC50 [2] [nM] | other results
1 | Cc1cc2ncnn2cc1C1=CC2CCC(C1)N2S(=O)(=O)c1ccc2c(c1)CCO2 (centres unmarked) [Compound 190, 6-(8-((2,3-dihydrobenzofuran-5-yl)sulfonyl)-8-azabicyclo[3.2.1]oct-2-en-3-yl)-7-methyl-[1,2,4]triazolo[1,5-a]pyridine] | – | – | IC50: > 10000 nM
2 | O=S(=O)(c1ccc2ncsc2c1)N1CCC(c2ccncc2)CC1 [Compound 1, 6-((4-(pyridin-4-yl)piperidin-1-yl)sulfonyl)benzo[d]thiazole] | – | > 10000 | –
3 | Cc1c(C2CCN(S(=O)(=O)c3cnn(C(F)F)c3C)CC2)cn2ncnc2c1F [Compound 269, 6-(1-((1-(difluoromethyl)-5-methyl-1H-pyrazol-4-yl)sulfonyl)piperidin-4-yl)-8-fluoro-7-methyl-[1,2,4]triazolo[1,5-a]pyridine] | – | 326 | –
4 | Cc1cc2nccn2nc1C1CCN(S(=O)(=O)c2ccc3c(c2)OCO3)CC1 [Compound 40, 6-(1-(benzo[d][1,3]dioxol-5-ylsulfonyl)piperidin-4-yl)-7-methylimidazo[1,2-b]pyridazine] | – | > 10000 | –
5 | Cc1cc2ncnn2cc1C1CCN(S(=O)(=O)c2cnn(C)c2C(F)F)CC1 [Compound 156, 6-(1-((5-(difluoromethyl)-1-methyl-1H-pyrazol-4-yl)sulfonyl)piperidin-4-yl)-7-methyl-[1,2,4]triazolo[1,5-a]pyridine] | – | 9.1 | –
6 | O=S(=O)(c1cc2c(cc1F)OCC2)N1CCC(c2cc3cc[nH]c3cn2)CC1 [Compound 93, 5-(1-((6-fluoro-2,3-dihydrobenzofuran-5-yl)sulfonyl)piperidin-4-yl)-1H-pyrrolo[2,3-c]pyridine] | – | > 10000 | –
7 | O=S(=O)(c1ccc2c(c1)CCO2)N1CCC(c2cn3ncnc3cc2C(F)(F)F)CC1 [Compound 109, 6-(1-((2,3-dihydrobenzofuran-5-yl)sulfonyl)piperidin-4-yl)-7-(trifluoromethyl)-[1,2,4]triazolo[1,5-a]pyridine] | – | 746 | –

Second part, led by results:

Row | IC50 [1] [nM] | IC50 [2] [nM] | Structure (SMILES) | other results
8 | 11 | – | [2H]C1([2H])CC(c2cn3ncnc3c(F)c2C)CC([2H])([2H])N1S(=O)(=O)c1cnn(C)c1C(F)F [Compound 474, 6-(1-((5-(Difluoromethyl)-1-methyl-1H-pyrazol-4-yl)sulfonyl)piperidin-4-yl-2,2,6,6-d4)-8-fluoro-7-methyl-[1,2,4]triazolo[1,5-a]pyridine] | –
9 | 946 | – | O=S(=O)(c1cnn2c1OCCC2)N1CCC(F)(c2cn3ncnc3cc2F)CC1 [Compound 506, 3-((4-fluoro-4-(7-fluoro-[1,2,4]triazolo[1,5-a]pyridin-6-yl)piperidin-1-yl)sulfonyl)-6,7-dihydro-5H-pyrazolo[5,1-b][1,3]oxazine] | –
10 | – | 142 | Cn1ncc(S(=O)(=O)N2CC=C(c3cc4c(cc3Cl)OCO4)CC2)c1Cl [Compound 351, 1-((5-chloro-1-methyl-1H-pyrazol-4-yl)sulfonyl)-4-(6-chlorobenzo[d][1,3]dioxol-5-yl)-1,2,3,6-tetrahydropyridine] | –
11 | – | > 10000 | Cc1nc(C)c(S(=O)(=O)N2CCC(c3cn4ncnc4cc3C(F)(F)F)CC2)s1 [Compound 279, 2,4-dimethyl-5-((4-(7-(trifluoromethyl)-[1,2,4]triazolo[1,5-a]pyridin-6-yl)piperidin-1-yl)sulfonyl)thiazole] | –
12 | 36 | – | Cc1cc2ncnn2cc1C1(F)CCN(S(=O)(=O)c2cnn(C)c2Cl)CC1 [Compound 419, 6-(1-((5-chloro-1-methyl-1H-pyrazol-4-yl)sulfonyl)-4-fluoropiperidin-4-yl)-7-methyl-[1,2,4]triazolo[1,5-a]pyridine] | –
13 | 10 | – | [2H]C1([2H])CC(c2cn3ncnc3cc2C)CC([2H])([2H])N1S(=O)(=O)c1cnn(C)c1C#N [Compound 547, 1-methyl-4-((4-(7-methyl-[1,2,4]triazolo[1,5-a]pyridin-6-yl)piperidin-1-yl-2,2,6,6-d4)sulfonyl)-1H-pyrazole-5-carbonitrile] | –
14 | 25 | – | Cn1cc(S(=O)(=O)N2CCC(c3cn4ncnc4cc3Cl)CC2)nn1 [Compound 557, 7-chloro-6-(1-((1-methyl-1H-1,2,3-triazol-4-yl)sulfonyl)piperidin-4-yl)-[1,2,4]triazolo[1,5-a]pyridine] | –
